Test results published in patent US9862998B2, “Conformational probes and methods for sequencing nucleic acids” (Illumina, Inc., priority 2010, dated 2018).
“Also recorded” adds a separate entry of the source.

Tests used:
Format in all cases: biochemical
[1] = target: T1, 5-TAMRA Pol β (W325C Pol β) (Homo sapiens, UniProt P06746, W325C); experiment: Stopped-flow 5-TAMRA fluorescence detection of nucleotide incorporation by 5-TAMRA Pol β; settings: for amplitudes and durations for the 5-TAMRA emission shift: incorporated at an appropriate position in a template-bound primer, FIG. 10, 11, 13
T1 construct: made in house; host or cells: E. coli BL21(DE3)
Method: 5-TAMRA Pol β was prepared as follows. Human Pol β was mutated to replace Tryptophan 325 (in the fingers domain) with cysteine to produce W325C Pol β. Standard mutagenesis techniques were used to produce W325C Pol β as described in Example III. The W325C Pol β was cloned in the pET15b plasmid, expressed in E. coli BL21(DE3) cells and purified as described in Dunlap and Tsai, Biochemistry, 41 (37): 11226-11235 (2002), which is incorporated herein by reference. The purified W325C Pol β was chemically modified to introduce the 5-TAMRA fluorescent dye at cysteine 325, thereby producing 5-TAMRA Pol β.
Conformational changes in the 5-TAMRA Pol β enzyme from the open to closed state can be detected based on a fluorescent emission change from the environmentally sensitive 5-TAMRA dye. The spectral and emission intensity changes from the 5-TAMRA dye when the polymerase changes to the closed state. The 5-TAMRA Pol β enzyme can be bound to a primer-template nucleic acid complex in an open conformation. In the open conformation the 5-TAMRA dye when excited with light at a wavelength of 542 nm will emit fluorescence at a wavelength of 568 nm. However upon binding of an appropriate nucleotide to the 5-TAMRA Pol β-primer-template binary complex, the 5-TAMRA Pol β enzyme changes from the open state to the closed state causing the 5-TAMRA dye to experience a different environment. This change in environment results in a detectable fluorescent emission change from the TAMRA dye at the wavelength of 568 nm. As such, binding of the appropriate nucleotide can be detected as a fluorescent emission change at 568 nm wavelength. Furthermore, differential time durations of the closed state can be used to distinguish different nucleotides that are incorporated into the primer by 5-TAMRA Pol β.
The real-time fluorescence change from 5-TAMRA Pol β was measured in the Applied Photophysics SX20 stopped-flow spectrometer by monitoring changes in 5-TAMRA dye fluorescence following the mixing of the 5-TAMRA Pol β-DNA binary complex with a nucleotide in a reaction buffer containing 50 mM Tris-HCl, pH 7.5, 50 mM KCl, 1 mM Dithiothreitol and 5 mM MgCl2 as described in Example III.
(§1) Dual labeled KF was produced as described in Example III. FRET from dual labeled KF was measured by stopped flow kinetics also as described in Example III. 5-TAMRA Pol β was prepared as described in Example IV. The real time fluorescence change from 5-TAMRA Pol β was measured by stopped flow kinetics also as described in Example IV.

[2] = target: Alexa 488 and 532 dual-labeled KF (K550C/L744C/C907G Klenow Fragment) (Escherichia coli, UniProt P00582, C907G/K550C/L744C); design: made in house; host or cells: E. coli BL21(DE3); settings: for AF488 fluorescence duration measured for the incorporation: dTTP versus Gamma-ANS-dTTP, FIG. 12; for FRET duration, correct versus incorrect incorporation: position complementary to cytosine, dGTP correct, dCTP incorrect, FIG. 8; for time durations of the FRET signal for incorporation into the primer: AF488 donor fluorescence, stopped flow, FIG. 5-7
Chain of Alexa 488 and 532 dual-labeled KF (K550C/L744C/C907G Klenow Fragment) (P00582 324-928 K550C/L744C/C907G): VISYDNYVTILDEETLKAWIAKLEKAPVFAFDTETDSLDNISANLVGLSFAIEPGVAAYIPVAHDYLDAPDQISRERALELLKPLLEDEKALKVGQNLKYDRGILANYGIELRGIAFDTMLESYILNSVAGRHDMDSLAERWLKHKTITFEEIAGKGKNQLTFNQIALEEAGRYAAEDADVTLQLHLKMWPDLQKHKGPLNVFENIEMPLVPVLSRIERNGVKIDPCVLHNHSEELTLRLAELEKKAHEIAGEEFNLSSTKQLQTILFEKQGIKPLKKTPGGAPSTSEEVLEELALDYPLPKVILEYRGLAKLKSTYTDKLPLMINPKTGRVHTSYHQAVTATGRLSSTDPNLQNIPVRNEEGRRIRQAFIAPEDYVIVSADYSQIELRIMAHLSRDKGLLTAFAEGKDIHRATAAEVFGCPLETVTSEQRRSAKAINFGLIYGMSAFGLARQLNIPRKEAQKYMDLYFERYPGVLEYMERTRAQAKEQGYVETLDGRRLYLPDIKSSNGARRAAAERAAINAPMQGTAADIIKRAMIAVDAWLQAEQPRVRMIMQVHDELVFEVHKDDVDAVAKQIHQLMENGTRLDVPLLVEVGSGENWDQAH
Text: The Klenow Fragments (KF) was produced as follows. KF was mutated to replace cysteine 907 with glycine, to replace leucine 744 (in the fingers domain) with cysteine and to replace lysine 550 (in the thumb domain) with cysteine, thereby producing K550C/L744C/C907G KF. Standard mutagenesis techniques were used to produce K550C/L744C/C907G KF as described in the manual of the QuikChange® site-directed mutagenesis kit from Stratagene/Agilent (La Jolla, Calif.). The K550C/L744C/C907G KF was cloned into the pET15b plasmid using the NdeI and BamHI restriction sites, and expressed in E. coli BL21(DE3) cells. The K550C/L744C/[…] KF was purified as described in Joyce, et al. Biochemistry, 47 (23): 6103-6116 (2008), which is incorporated herein by reference. The purified K550C/L744C/C907C KF was chemically modified using the thiol-reactive maleimide to introduce the Alexa488 fluorescent donor dye at cysteine 550
Conformational changes in the dual labeled KF enzyme from the open to closed state can be detected based on fluorescence resonance energy transfer (FRET) between the AF488 fluorescent donor dye on the thumb domain and AF532 fluorescence acceptor dye on the fingers domain. The KF enzyme can be bound to a primer-template nucleic acid complex in an open conformation. In the open conformation the AF488 fluorescent donor dye when excited with light at a wavelength of 495 nm will emit fluorescence at a wavelength of 519 nm. However, upon binding of an appropriate nucleotide to the dual labeled KF-template-primer complex the dual labeled KF enzyme changes from the open state to the closed state. The closed state brings the AF488 fluorescent donor dye on the thumb domain into proximity with the AF532 fluorescence acceptor dye on the finger domain such that the AF488 fluorescent donor dye when excited transfers energy to the AF532 fluorescence acceptor dye. This FRET results in a detectable emission from the AF532 fluorescence acceptor dye at a wavelength of […]. As such, binding of the appropriate nucleotide can be detected as increased emission at 554 nm wavelength. Furthermore, differential time durations of the closed state can be used to distinguish different nucleotides that are incorporated into the primer by dual labeled KF.
The real-time fluorescence change from dual labeled KF was measured in an Applied Photophysics SX20 stopped-flow spectrometer by monitoring changes in AF 488 dye fluorescence following the mixing of the PolI(KF)-DNA binary complex with a nucleotide in the reaction buffer containing 10 mM Tris-HCl, pH 8.0, 50 mM NaCl, 1 mM dithiothreitol and 10 mM MgCl2.
as §1

[3] = tested on: nucleic acid duplex of extendable 3'-OH primer and AF488 template; experiment: FRET-based primer extension assay (AF488 quenching); settings: AF488 quenching over time by Cy3-dCTP incorporation, FIG. 16
Method: Functionality of the Cy3AF647 and CF555AF647 conjugates of RB69V510CE766C were confirmed using a FRET-based primer extension assay as follows. Extension was carried out on a nucleic acid duplex composed of an extendable 3′-OH primer and a template with a 7 base overhang. The extendable sequence was TGGAACG. In addition, the template contained an AF488 dye at the 5′ position. The extension reaction mix was composed of 50 mM ACES pH 7.2, 50 mM NaCl, 10 mM DTT, 10 mM Mg′, 1 μM dTTP, 1 μM dGTP, 1 μM dATP and 0.1 μM Cy3-dCTP. Upon extension, the Cy3 quenches the AF488. The control reactions were carried out under the same conditions except that dTTP was removed to prevent extension. A SpectraMax M5 plate reader was used to monitor the AF488 quenching over time. […] The plot confirms that both conjugates were functional in extending a primed nucleic acid.

Row | Molecule | amplitudes and durations for the 5-TAMRA emission shift [1] | time durations of the FRET signal for incorporation into the primer [2] | further results
1 | Gamma-ANS-dTTP | could be distinguished from each other | – | AF488 fluorescence duration measured for the incorporation [2]: substantially different
2 | Nc1ccn([C@H]2C[C@H](O)[C@@H](COP(=O)(O)OP(=O)(O)OP(=O)(O)O)O2)c(=O)n1 [dCTP] | different amplitudes and durations | – | incorporation detected by wavelength shift for the 5-TAMRA dye ([1]; correct or incorrect nucleotide, FIG. 9A, 9B): could be detected; FRET duration, correct versus incorrect incorporation [2]: could be distinguished
3 | Nc1ccn([C@H]2C[C@H](O)[C@@H](COP(O)(=S)OP(=O)(O)OP(=O)(O)O)O2)c(=O)n1 (stereo partly drawn) [1-alpha-thiol-dCTP] | – | substantially different | –
4 | Nc1nc2c(ncn2[C@H]2C[C@H](O)[C@@H](COP(=O)(O)OP(=O)(O)OP(=O)(O)O)O2)c(=O)[nH]1 [dGTP] | different amplitudes and durations | very similar | FRET duration, correct versus incorrect incorporation [2]: could be distinguished
5 | O=c1ccn([C@H]2C[C@H](O)[C@@H](COP(=O)(O)OP(=O)(O)OP(=O)(O)O)O2)c(=O)[nH]1 [dUTP] | – | differed | –
6 | Cc1cn([C@H]2C[C@H](O)[C@@H](COP(=O)(O)OP(=O)(O)OP(=O)(O)O)O2)c(=O)[nH]c1=O [dTTP] | different amplitudes and durations; also recorded: could be distinguished from each other | – | AF488 fluorescence duration measured for the incorporation [2]: substantially different
7 | Nc1ncnc2c1ncn2[C@H]1C[C@H](O)[C@@H](COP(=O)(O)OP(=O)(O)OP(=O)(O)O)O1 [dATP] | different amplitudes and durations | very similar | –
8 | 1-alpha-borano-dCTP | could be distinguished from each other | substantially different | –
9 | Cy3AF647: RB69V510CE766C polymerase labeled with donor/acceptor pair Cy3/AF647 at cysteine residues (conjugate, UniProt Q38087 1-903, looked up, variant V510C E766C, Cy3/AF647 dye labels, RB69V510CE766C polymerase labeled with donor/acceptor pair Cy3/AF647 at cysteine residues) DNA-directed DNA polymerase: MKEFYLTVEQIGDSIFERYIDSNGRERTREVEYKPSLFAHCPESQATKYFDIYGKPCTRKLFANMRDASQWIKRMEDIGLEALGMDDFKLAYLSDTYNYEIKYDHTKIRVANFDIEVTSPDGFPEPSQAKHPIDAITHYDSIDDRFYVFDLLNSPYGNVEEWSIEIAAKLQEQGGDEVPSEIIDKIIYMPFDNEKELLMEYLNFWQQKTPVILTGWNVESFDIPYVYNRIKNIFGESTAKRLSPHRKTRVKVIENMYGSREIITLFGISVLDYIDLYKKFSFTNQPSYSLDYISEFELNVGKLKYDGPISKLRESNHQRYISYNIIDVYRVLQIDAKRQFINLSLDMGYYAKIQIQSVFSPIKTWDAIIFNSLKEQNKVIPQGRSHPVQPYPGAFVKEPIPNRYKYVMSFDLTSLYPSIIRQVNISPETIAGTFKVAPLHDYINAVAERPSDVYSCSPNGMMYYKDRDGVVPTEITKVFNQRKEHKGYMLAAQRNGEIIKEALHNPNLSCDEPLDVDYRFDFSDEIKEKIKKLSAKSLNEMLFRAQRTEVAGMTAQINRKLLINSLYGALGNVWFRYYDLRNATAITTFGQMALQWIERKVNEYLNEVCGTEGEAFVLYGDTDSIYVSADKIIDKVGESKFRDTNHWVDFLDKFARERMEPAIDRGFREMCEYMNNKQHLMFMDREAIAGPPLGSKGIGGFWTGKKRYALNVWDMEGTRYAEPKLKIMGLETQKSSTPKAVQKALKECIRRMLQEGEESLQEYFKCFEKEFRQLNYISIASVSSANNIAKYDVGGFPGPKCPFHIRGILTYNRAIKGNIDAPQVVEGEKVYVLPLREGNPFGDKCIAWPSGTEITDLIKDDVLHWMDYTVLLEKTFIKPLEGFTSAAKLDYEKKASLFDMFDF | – | – | functionality in extending a primed nucleic acid [3]: functional
10 | CF555AF647: RB69V510CE766C polymerase labeled with donor/acceptor pair CF555/AF647 at cysteine residues (conjugate, UniProt Q38087 1-903, looked up, variant V510C E766C, CF555/AF647 dye labels, RB69V510CE766C polymerase labeled with donor/acceptor pair CF555/AF647 at cysteine residues) DNA-directed DNA polymerase: MKEFYLTVEQIGDSIFERYIDSNGRERTREVEYKPSLFAHCPESQATKYFDIYGKPCTRKLFANMRDASQWIKRMEDIGLEALGMDDFKLAYLSDTYNYEIKYDHTKIRVANFDIEVTSPDGFPEPSQAKHPIDAITHYDSIDDRFYVFDLLNSPYGNVEEWSIEIAAKLQEQGGDEVPSEIIDKIIYMPFDNEKELLMEYLNFWQQKTPVILTGWNVESFDIPYVYNRIKNIFGESTAKRLSPHRKTRVKVIENMYGSREIITLFGISVLDYIDLYKKFSFTNQPSYSLDYISEFELNVGKLKYDGPISKLRESNHQRYISYNIIDVYRVLQIDAKRQFINLSLDMGYYAKIQIQSVFSPIKTWDAIIFNSLKEQNKVIPQGRSHPVQPYPGAFVKEPIPNRYKYVMSFDLTSLYPSIIRQVNISPETIAGTFKVAPLHDYINAVAERPSDVYSCSPNGMMYYKDRDGVVPTEITKVFNQRKEHKGYMLAAQRNGEIIKEALHNPNLSCDEPLDVDYRFDFSDEIKEKIKKLSAKSLNEMLFRAQRTEVAGMTAQINRKLLINSLYGALGNVWFRYYDLRNATAITTFGQMALQWIERKVNEYLNEVCGTEGEAFVLYGDTDSIYVSADKIIDKVGESKFRDTNHWVDFLDKFARERMEPAIDRGFREMCEYMNNKQHLMFMDREAIAGPPLGSKGIGGFWTGKKRYALNVWDMEGTRYAEPKLKIMGLETQKSSTPKAVQKALKECIRRMLQEGEESLQEYFKCFEKEFRQLNYISIASVSSANNIAKYDVGGFPGPKCPFHIRGILTYNRAIKGNIDAPQVVEGEKVYVLPLREGNPFGDKCIAWPSGTEITDLIKDDVLHWMDYTVLLEKTFIKPLEGFTSAAKLDYEKKASLFDMFDF | – | – | functionality in extending a primed nucleic acid [3]: functional
